Data from PubChem BioAssay (NCI).
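Tested at 5 concentrations; 48 h exposure; 96-well plates; endpoints linearly interpolated, else capped at highest concentration. The concentration for 50% growth inhibition is given as GI50. TGI is the concentration that stops growth completely.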

Experiments:
Experiment in all cases: NCI-60 cell line screen, 48 h
786-0 renal = test system: 786-0 renal
A498 renal = test system: A498 renal
A549 NSCLC = test system: A549 NSCLC
ACHN renal = test system: ACHN renal
BT-549 breast = test system: BT-549 breast
CAKI-1 renal = test system: CAKI-1 renal
CCRF-CEM leukemia = test system: CCRF-CEM leukemia
COLO 205 colon = test system: COLO 205 colon
DU-145 prostate = test system: DU-145 prostate
HCC-2998 colon = test system: HCC-2998 colon
HCT-116 colon = test system: HCT-116 colon
HCT-15 colon = test system: HCT-15 colon
HL-60(TB) leukemia = test system: HL-60(TB) leukemia
HOP-62 NSCLC = test system: HOP-62 NSCLC
HOP-92 NSCLC = test system: HOP-92 NSCLC
HS 578T breast = test system: HS 578T breast
HT29 colon = test system: HT29 colon
IGROV1 ovarian = test system: IGROV1 ovarian
K-562 leukemia = test system: K-562 leukemia
KM12 colon = test system: KM12 colon
LOX IMVI melanoma = test system: LOX IMVI melanoma
M14 melanoma = test system: M14 melanoma
MALME-3M melanoma = test system: MALME-3M melanoma
MCF7 breast = test system: MCF7 breast
MDA-MB-231 breast = test system: MDA-MB-231 breast
MDA-MB-435 = test system: MDA-MB-435
MOLT-4 leukemia = test system: MOLT-4 leukemia
NCI-H23 lung = test system: NCI-H23 lung
NCI-H460 lung = test system: NCI-H460 lung
NCI-H522 lung = test system: NCI-H522 lung
NCI/ADR-RES ovarian = test system: NCI/ADR-RES ovarian
OVCAR-3 ovarian = test system: OVCAR-3 ovarian
OVCAR-4 ovarian = test system: OVCAR-4 ovarian
OVCAR-5 ovarian = test system: OVCAR-5 ovarian
OVCAR-8 ovarian = test system: OVCAR-8 ovarian
PC-3 prostate = test system: PC-3 prostate
RPMI-8226 leukemia = test system: RPMI-8226 leukemia
RXF 393 renal = test system: RXF 393 renal
SF-268 CNS = test system: SF-268 CNS
SF-295 CNS = test system: SF-295 CNS
SF-539 CNS = test system: SF-539 CNS
SK-MEL-2 melanoma = test system: SK-MEL-2 melanoma
SK-MEL-5 melanoma = test system: SK-MEL-5 melanoma
SK-OV-3 ovarian = test system: SK-OV-3 ovarian
SN12C renal = test system: SN12C renal
SNB-19 CNS = test system: SNB-19 CNS
SNB-75 CNS = test system: SNB-75 CNS
SR leukemia = test system: SR leukemia
SW-620 colon = test system: SW-620 colon
T-47D breast = test system: T-47D breast
TK-10 renal = test system: TK-10 renal
U251 CNS = test system: U251 CNS
UACC-257 melanoma = test system: UACC-257 melanoma
UO-31 renal = test system: UO-31 renal

CNCCn1c(=O)c2cc(OC)c(OC)cc2c2cnc3cc4c(cc3c21)OCO4
GI50 (786-0 renal): < 10 nM | TGI (786-0 renal): 16.8 nM | GI50 (A498 renal): 19.4 nM | TGI (A498 renal): 135 nM | GI50 (A549 NSCLC): < 10 nM | TGI (A549 NSCLC): 1310 nM | GI50 (ACHN renal): < 10 nM | TGI (ACHN renal): 1120 nM | GI50 (BT-549 breast): 30.9 nM | TGI (BT-549 breast): 1790 nM | GI50 (CAKI-1 renal): < 10 nM | TGI (CAKI-1 renal): 128 nM | GI50 (CCRF-CEM leukemia): < 10 nM | TGI (CCRF-CEM leukemia): 1190 nM | GI50 (COLO 205 colon): 30.4 nM | TGI (COLO 205 colon): 2060 nM | GI50 (DU-145 prostate): < 10 nM | TGI (DU-145 prostate): 1270 nM | GI50 (HCC-2998 colon): 48.4 nM | TGI (HCC-2998 colon): 1790 nM | GI50 (HCT-116 colon): < 10 nM | TGI (HCT-116 colon): 135 nM | GI50 (HCT-15 colon): 35.9 nM | TGI (HCT-15 colon): 1550 nM | GI50 (HL-60(TB) leukemia): < 10 nM | TGI (HL-60(TB) leukemia): 111 nM | GI50 (HOP-62 NSCLC): < 10 nM | TGI (HOP-62 NSCLC): 1610 nM | GI50 (HOP-92 NSCLC): < 14.9 nM | TGI (HOP-92 NSCLC): 518 nM | GI50 (HS 578T breast): 1680 nM | TGI (HS 578T breast): 4440 nM | GI50 (HT29 colon): 11.9 nM | TGI (HT29 colon): 110 nM | GI50 (IGROV1 ovarian): 27.6 nM | TGI (IGROV1 ovarian): 1760 nM | GI50 (K-562 leukemia): 25.2 nM | TGI (K-562 leukemia): 2200 nM | GI50 (KM12 colon): 48.3 nM | TGI (KM12 colon): 1600 nM | GI50 (LOX IMVI melanoma): < 10 nM | TGI (LOX IMVI melanoma): 100 nM | GI50 (M14 melanoma): < 10 nM | TGI (M14 melanoma): 1360 nM | GI50 (MALME-3M melanoma): 50 nM | TGI (MALME-3M melanoma): 5750 nM | GI50 (MCF7 breast): < 10 nM | TGI (MCF7 breast): 1140 nM | GI50 (MDA-MB-231 breast): 190 nM | TGI (MDA-MB-231 breast): 1670 nM | GI50 (MDA-MB-435): 18.9 nM | TGI (MDA-MB-435): 2020 nM | GI50 (MOLT-4 leukemia): < 10 nM | TGI (MOLT-4 leukemia): 30.3 nM | GI50 (NCI-H23 lung): < 11.2 nM | TGI (NCI-H23 lung): 1330 nM | GI50 (NCI-H460 lung): < 10 nM | TGI (NCI-H460 lung): 217 nM | GI50 (NCI-H522 lung): < 10 nM | TGI (NCI-H522 lung): 26.1 nM | GI50 (NCI/ADR-RES ovarian): 32 nM | TGI (NCI/ADR-RES ovarian): 1510 nM | GI50 (OVCAR-3 ovarian): 39.3 nM | TGI (OVCAR-3 ovarian): 2020 nM | GI50 (OVCAR-4 ovarian): 34.7 nM | TGI (OVCAR-4 ovarian): 2210 nM | GI50 (OVCAR-5 ovarian): 25.9 nM | TGI (OVCAR-5 ovarian): 304 nM | GI50 (OVCAR-8 ovarian): < 10 nM | TGI (OVCAR-8 ovarian): 1340 nM | GI50 (PC-3 prostate): 21 nM | TGI (PC-3 prostate): 1870 nM | GI50 (RPMI-8226 leukemia): 25.4 nM | TGI (RPMI-8226 leukemia): 915 nM | GI50 (RXF 393 renal): < 10 nM | TGI (RXF 393 renal): 35.2 nM | GI50 (SF-268 CNS): < 10 nM | TGI (SF-268 CNS): 1780 nM | GI50 (SF-295 CNS): < 10 nM | TGI (SF-295 CNS): < 15.5 nM | GI50 (SF-539 CNS): < 10 nM | TGI (SF-539 CNS): 10.3 nM | GI50 (SK-MEL-2 melanoma): 2320 nM | TGI (SK-MEL-2 melanoma): 4910 nM | GI50 (SK-MEL-5 melanoma): 10 nM | TGI (SK-MEL-5 melanoma): 25.4 nM | GI50 (SK-OV-3 ovarian): < 10.4 nM | TGI (SK-OV-3 ovarian): 1820 nM | GI50 (SN12C renal): < 10 nM | TGI (SN12C renal): 1250 nM | GI50 (SNB-19 CNS): < 10 nM | TGI (SNB-19 CNS): 2280 nM | GI50 (SNB-75 CNS): < 10 nM | TGI (SNB-75 CNS): 65.8 nM | GI50 (SR leukemia): < 10 nM | GI50 (SW-620 colon): 12.1 nM | TGI (SW-620 colon): 1950 nM | GI50 (T-47D breast): < 10 nM | TGI (T-47D breast): 1480 nM | GI50 (TK-10 renal): 46.5 nM | TGI (TK-10 renal): 2160 nM | GI50 (U251 CNS): < 10 nM | TGI (U251 CNS): 24.2 nM | GI50 (UACC-257 melanoma): 26.7 nM | TGI (UACC-257 melanoma): 5660 nM | GI50 (UO-31 renal): < 10 nM | TGI (UO-31 renal): 1210 nM
